# Test results taken from PubChem BioAssay AID330 (DTP/NCI, 2004).
# “And” between values parts separate entries of the source, which are not always exact repeats. Equal entries are not always repeated. Toxic doses and inconclusive results are not listed.
# Tested on: P388 leukemia ip, CD2F1 mice, survival T/C
# Test: NCI In Vivo Anticancer Drug Screen. Data for tumor model P388 Leukemia (intraperitoneal) in CD2F1 (CDF1) mice
# Conditions: endpoint: median survival time, higher = longer survival
# Summary of the method: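 Mice carrying the transplanted tumor received test compound or vehicle. Survival was recorded in each group, and the value is the treated-group measurement divided by that of the vehicle-treated control group.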
# [1] = dose: 30.0 mg/kg/injection, schedule: Q01DX005 (ip), vehicle: saline
# [2] = dose: 60.0 mg/kg/injection, schedule: Q01DX005 (ip), vehicle: saline
# [3] = dose: 50.0 mg/kg/injection, schedule: Q01DX005 (ip), vehicle: Klucel (hydroxypropylcellulose) (HPC)
# [4] = dose: 100.0 mg/kg/injection, schedule: Q01DX005 (ip), vehicle: Klucel (hydroxypropylcellulose) (HPC)
# [5] = dose: 200.0 mg/kg/injection, schedule: Q01DX005 (ip), vehicle: Klucel (hydroxypropylcellulose) (HPC)
# [6] = dose: 30.0 mg/kg/injection, schedule: Q01DX005 (ip), vehicle: Klucel (hydroxypropylcellulose) (HPC)
# [7] = dose: 100.0 mg/kg/injection, schedule: Q01DX001 (ip), vehicle: saline with Tween-80
# [8] = dose: 200.0 mg/kg/injection, schedule: Q01DX001 (ip), vehicle: saline with Tween-80
# [9] = dose: 50.0 mg/kg/injection, schedule: Q01DX005 (ip), vehicle: saline with Tween-80
# [10] = dose: 100.0 mg/kg/injection, schedule: Q01DX005 (ip), vehicle: saline with Tween-80
# [11] = dose: 200.0 mg/kg/injection, schedule: Q01DX005 (ip), vehicle: saline with Tween-80
structure (smiles),measurement,setting,value
NC(N)=N/N=C\c1ccnc2ccccc12,T/C,"dose: 7.5 mg/kg/injection, schedule: Q01DX005 (ip), vehicle: saline",100 % of control
same,T/C,"dose: 15.0 mg/kg/injection, schedule: Q01DX005 (ip), vehicle: saline",105 % of control
same,T/C,[1],105 % of control
same,T/C,[2],105 % of control
CN1CCc2c1cc(-c1ccncc1)c1c2N(C)CC1,T/C,[3],106 % of control
same,T/C,[4],107 % of control
same,T/C,[5],107 % of control
COC1(OC)OC2=C(OC1(OC)OC)c1ccccc1C2=O,T/C,"dose: 7.5 mg/kg/injection, schedule: Q01DX005 (ip), vehicle: Klucel (hydroxypropylcellulose) (HPC)",114 % of control
same,T/C,"dose: 15.0 mg/kg/injection, schedule: Q01DX005 (ip), vehicle: Klucel (hydroxypropylcellulose) (HPC)",114 % of control and 122 % of control
same,T/C,[6],114 % of control and 115 % of control
same,T/C,"dose: 60.0 mg/kg/injection, schedule: Q01DX005 (ip), vehicle: Klucel (hydroxypropylcellulose) (HPC)",111 % of control and 115 % of control (2×)
CC(=O)C1=C(c2ccc([N+](=O)[O-])cc2)NC(=O)NC1c1ccco1 (stereo not given),T/C,"dose: 100.0 mg/kg/injection, schedule: Q04DX003 (ip), vehicle: saline with Tween-80",95 % of control
same,T/C,"dose: 200.0 mg/kg/injection, schedule: Q04DX003 (ip), vehicle: saline with Tween-80",100 % of control
same,T/C,"dose: 400.0 mg/kg/injection, schedule: Q04DX003 (ip), vehicle: saline with Tween-80",100 % of control
CCOCCC(=O)NCC(=O)NC1C(C)OC(Nc2ncnc3nc[nH]c23)C(O)C1O (stereo not given),T/C,"dose: 3.12 mg/kg/injection, schedule: Q01DX009 (ip), vehicle: water",94 % of control
same,T/C,"dose: 6.25 mg/kg/injection, schedule: Q01DX009 (ip), vehicle: water",100 % of control
same,T/C,"dose: 12.5 mg/kg/injection, schedule: Q01DX009 (ip), vehicle: water",96 % of control
same,T/C,"dose: 25.0 mg/kg/injection, schedule: Q01DX009 (ip), vehicle: water",116 % of control
same,T/C,"dose: 50.0 mg/kg/injection, schedule: Q01DX009 (ip), vehicle: water",100 % of control
CCOC(=O)Nc1cc(N(C)CC(O)c2ccccc2)c(N)c(N)n1 (stereo not given),T/C,"dose: 50.0 mg/kg/injection, schedule: Q01DX001 (ip), vehicle: saline with Tween-80",104 % of control
same,T/C,[7],94 % of control
same,T/C,[8],94 % of control
CC1C2CCN(C)C1Cc1ccc(O)cc12 (stereo not given),T/C,[9],94 % of control
same,T/C,[10],92 % of control
same,T/C,[11],100 % of control
Cc1s/c(=N/N=C2\C(=O)C=Cc3ccccc32)n(O)c1C,T/C,"dose: 50.0 mg/kg/injection, schedule: Q01DX009 (ip), vehicle: Klucel (hydroxypropylcellulose) (HPC)",99 % of control
same,T/C,"dose: 100.0 mg/kg/injection, schedule: Q01DX009 (ip), vehicle: Klucel (hydroxypropylcellulose) (HPC)",108 % of control
same,T/C,"dose: 200.0 mg/kg/injection, schedule: Q01DX009 (ip), vehicle: Klucel (hydroxypropylcellulose) (HPC)",111 % of control
CCOC(=O)CSC(=O)c1cccnc1Oc1ccccc1,T/C,[3],94 % of control
same,T/C,[4],90 % of control
same,T/C,[5],93 % of control
COC(=O)C1(C)CCCC2(C)C3CCC4CC3(C=C4CO)CCC12 (stereo not given),T/C,"dose: 10.0 mg/kg/injection, schedule: Q01DX005 (ip), vehicle: Klucel (hydroxypropylcellulose) (HPC)",108 % of control
same,T/C,"dose: 20.0 mg/kg/injection, schedule: Q01DX005 (ip), vehicle: Klucel (hydroxypropylcellulose) (HPC)",100 % of control
same,T/C,"dose: 40.0 mg/kg/injection, schedule: Q01DX005 (ip), vehicle: Klucel (hydroxypropylcellulose) (HPC)",100 % of control
same,T/C,"dose: 80.0 mg/kg/injection, schedule: Q01DX005 (ip), vehicle: Klucel (hydroxypropylcellulose) (HPC)",93 % of control
O=P(OCC(Br)CBr)(OCC(Br)CBr)OCC(Br)CBr (stereo not given),T/C,"dose: 100.0 mg/kg/injection, schedule: Q01DX009 (ip), vehicle: saline with Tween-80",112 % of control and 114 % of control
same,T/C,"dose: 200.0 mg/kg/injection, schedule: Q01DX009 (ip), vehicle: saline with Tween-80",106 % of control and 109 % of control
same,T/C,"dose: 400.0 mg/kg/injection, schedule: Q01DX009 (ip), vehicle: saline with Tween-80",103 % of control and 106 % of control
same,T/C,"dose: 800.0 mg/kg/injection, schedule: Q01DX009 (ip), vehicle: saline with Tween-80",109 % of control and 94 % of control
O=c1oc2c(-c3c(O)c(=O)oc4ccccc34)cc(O)cc2s1,T/C,[3],96 % of control
same,T/C,[4],103 % of control
same,T/C,[5],104 % of control
c1ccc(C2NCCS2)cc1 (stereo not given),T/C,[3],100 % of control
same,T/C,[4],104 % of control
same,T/C,[5],104 % of control
[NH-]CC(=O)O.[NH-]CC(=O)O.[NH-]CC(=O)O.[NH-]CC(=O)O.[Pt+4],T/C,"dose: 12.5 mg/kg/injection, schedule: Q01DX009 (ip), vehicle: distilled water + Tween-80",93 % of control
same,T/C,"dose: 25.0 mg/kg/injection, schedule: Q01DX009 (ip), vehicle: distilled water + Tween-80",94 % of control
same,T/C,"dose: 50.0 mg/kg/injection, schedule: Q01DX009 (ip), vehicle: distilled water + Tween-80",101 % of control
same,T/C,"dose: 100.0 mg/kg/injection, schedule: Q01DX009 (ip), vehicle: distilled water + Tween-80",104 % of control
same,T/C,"dose: 200.0 mg/kg/injection, schedule: Q01DX009 (ip), vehicle: distilled water + Tween-80",104 % of control
C=CC1C(=O)N(C)[C@H](C(C)(C)C)N1C(=O)c1ccccc1 (stereo not given in full),T/C,"dose: 50.0 mg/kg/injection, schedule: Q01DX005 (ip), vehicle: saline",100 % of control
same,T/C,"dose: 100.0 mg/kg/injection, schedule: Q01DX005 (ip), vehicle: saline",93 % of control
same,T/C,"dose: 200.0 mg/kg/injection, schedule: Q01DX005 (ip), vehicle: saline",113 % of control
CSc1ccccc1C(=S)N1CCOCC1,T/C,[7],100 % of control
same,T/C,[8],90 % of control
same,T/C,"dose: 400.0 mg/kg/injection, schedule: Q01DX001 (ip), vehicle: saline with Tween-80",109 % of control
COc1ccc(CC2C(=O)NC(C)C(=O)N(C)C3C(=O)N(C)C(Cc4ccc(OC(C)=O)c(c4)Oc4ccc(cc4)C3OC(C)=O)C(=O)NC(C)C(=O)NC(C)C(=O)N2C)cc1 (stereo not given),T/C,"dose: 2.0 mg/kg/injection, schedule: Q01DX009 (ip), vehicle: none",154 % of control
CCOC(=O)CC(Cc1cc(OC)ccc1OC)(C(C)=O)C(C)=O,T/C,"dose: 25.0 mg/kg/injection, schedule: Q01DX009 (ip), vehicle: other",100 % of control
same,T/C,"dose: 50.0 mg/kg/injection, schedule: Q01DX009 (ip), vehicle: other",100 % of control
same,T/C,"dose: 100.0 mg/kg/injection, schedule: Q01DX009 (ip), vehicle: other",100 % of control
same,T/C,"dose: 200.0 mg/kg/injection, schedule: Q01DX009 (ip), vehicle: other",98 % of control
same,T/C,"dose: 400.0 mg/kg/injection, schedule: Q01DX009 (ip), vehicle: other",100 % of control
CN1CCN(C(=O)/C=C/C(=O)c2ccccc2)CC1,T/C,[6],121 % of control
same,T/C,[1],108 % of control
same,T/C,[2],106 % of control and 109 % of control
COc1cc2oc3cc(OC)c(OC)c(CC=C(C)C)c3c(=O)c2c(O)c1CC=C(C)C,T/C,"dose: 25.0 mg/kg/injection, schedule: Q01DX005 (ip), vehicle: Klucel (hydroxypropylcellulose) (HPC)",87 % of control
same,T/C,[3],100 % of control
same,T/C,[4],86 % of control and 97 % of control
same,T/C,[5],105 % of control
CC1=C(C)CN(CCc2c[nH]c3ccccc23)C(C#N)C1 (stereo not given),T/C,"dose: 12.5 mg/kg/injection, schedule: Q01DX005 (ip), vehicle: saline with Tween-80",102 % of control
same,T/C,"dose: 25.0 mg/kg/injection, schedule: Q01DX005 (ip), vehicle: saline with Tween-80",108 % of control
same,T/C,[9],102 % of control and 117 % of control
N#CC(C(=O)O)C(c1c(Cl)cccc1Cl)C(C#N)C(=O)O (stereo not given),T/C,[9],97 % of control
same,T/C,[10],89 % of control
Cc1ccc(N=Nc2c(O)n(-c3ccccc3C)c(=S)n(-c3ccccc3Cl)c2=O)cc1,T/C,"dose: 100.0 mg/kg/injection, schedule: Q01DX001 (ip), vehicle: Klucel (hydroxypropylcellulose) (HPC)",101 % of control
same,T/C,"dose: 200.0 mg/kg/injection, schedule: Q01DX001 (ip), vehicle: Klucel (hydroxypropylcellulose) (HPC)",103 % of control
same,T/C,"dose: 400.0 mg/kg/injection, schedule: Q01DX001 (ip), vehicle: Klucel (hydroxypropylcellulose) (HPC)",104 % of control
CN1C(=O)C(O)(C2=C3OCOC3=CC(=O)C2=O)c2ccccc21 (stereo not given),T/C,"dose: 6.25 mg/kg/injection, schedule: Q01DX005 (ip), vehicle: saline",105 % of control
same,T/C,"dose: 12.5 mg/kg/injection, schedule: Q01DX005 (ip), vehicle: saline",103 % of control
same,T/C,"dose: 25.0 mg/kg/injection, schedule: Q01DX005 (ip), vehicle: saline",102 % of control
CC1=CC2(C)C3C=C(C)C(C2C(=O)C1=O)C(C)(O)C3=O (stereo not given),T/C,[9],97 % of control
same,T/C,[10],106 % of control
same,T/C,[11],106 % of control
CCC(=O)NC(Cc1cccc(F)c1)C(=O)O (stereo not given),T/C,"dose: 6.25 mg/kg/injection, schedule: Q01DX009 (ip), vehicle: saline",112 % of control
same,T/C,"dose: 12.5 mg/kg/injection, schedule: Q01DX009 (ip), vehicle: saline",102 % of control
